# Test results: publication PMC11200585, “Prospects for Prostate Cancer Chemotherapy: Cytotoxic Evaluation and Mechanistic Insights of Quinolinequinones with ADME/PK Profile” (Biomedicines, 2024)
# Key:
# Format in all cases: cell-based, human
# [1] = tested on: A549/ATCC; assay: NCI-60 one-dose screen (non-small cell lung cancer); conditions: 10 µM single dose, 48 h
# Method: (§1) The obtained quinolinequinones were submitted to NCI, Bethesda, USA, and, as per standard protocol of NCI, all compounds were evaluated for their antiproliferative activity at single-dose assay (10 µM concentration in DMSO) on a panel of 60 cancer cell lines derived from leukemia, non-small-cell lung, colon, CNS, melanoma, ovarian, renal, prostate, and breast, as per protocol. Tested compounds were added to the microtiter culture plates followed by incubation for 48 h at 37 °C. Sulforhodamine B (SRB), a protein-binding dye, is used for endpoint determination. The percent of the growth of the treated cells was determined in comparison to the untreated control cells and the results of each tested compound were reported. Data from one-dose experiments pertain to the percentage growth at 10 μM [16, 17, 18].
# [2] = tested on: EKVX; assay: as above; conditions: 10 µM single dose, 48 h
# Method: as §1
# [3] = tested on: HOP-62; assay: as above; conditions: 10 µM single dose, 48 h
# Method: as §1
# [4] = tested on: HOP-92; assay: as above; conditions: 10 µM single dose, 48 h
# Method: as §1
# [5] = tested on: NCI-H226; assay: as above; conditions: 10 µM single dose
# Method: as §1
# [6] = tested on: NCI-H322M; assay: as above; conditions: 10 µM single dose
# Method: as §1
# [7] = tested on: NCI-H460; assay: as above; conditions: 10 µM single dose
# Method: as §1
# [8] = tested on: NCI-H522; assay: as above; conditions: 10 µM single dose, 48 h
# Method: as §1
# [9] = tested on: IGROV1; assay: NCI-60 one-dose screen (ovarian cancer); conditions: 10 µM single dose, 48 h
# Method: as §1
# [10] = tested on: NCI/ADR-RES; assay: NCI-60 one-dose screen (ovarian cancer); conditions: 10 µM single dose, 48 h
# Method: as §1
# [11] = tested on: OVCAR-4; assay: NCI-60 one-dose screen (ovarian cancer); conditions: 10 µM single dose, 48 h
# Method: as §1
# [12] = tested on: OVCAR-5; assay: NCI-60 one-dose screen (ovarian cancer); conditions: 10 µM single dose, 48 h
# Method: as §1
# [13] = tested on: OVCAR-8; assay: NCI-60 one-dose screen (ovarian cancer); conditions: 10 µM single dose
# Method: as §1
# [14] = tested on: SK-OV-3; assay: NCI-60 one-dose screen (ovarian cancer); conditions: 10 µM single dose, 48 h
# Method: as §1
# [15] = tested on: HL-60(TB); assay: NCI-60 five-dose assay (leukemia); conditions: 48 h, SRB
# [16] = tested on: RPMI-8226; assay: NCI-60 five-dose assay (leukemia); conditions: 48 h, SRB
# [17] = tested on: HOP-62; assay: NCI-60 five-dose assay (non-small cell lung cancer); conditions: 48 h, SRB
# [18] = tested on: HOP-92; assay: as above; conditions: 48 h, SRB
# [19] = tested on: NCI-H226; assay: as above; conditions: 48 h, SRB
# [20] = tested on: COLO 205; assay: NCI-60 five-dose assay (colon cancer); conditions: 48 h, SRB
# [21] = tested on: HCT-116; assay: NCI-60 five-dose assay (colon cancer); conditions: 48 h, SRB
# [22] = tested on: HCT-15; assay: NCI-60 five-dose assay (colon cancer); conditions: 48 h, SRB
# [23] = tested on: KM12; assay: NCI-60 five-dose assay (colon cancer); conditions: 48 h, SRB
# [24] = tested on: SF-539; assay: NCI-60 five-dose assay (CNS cancer); conditions: 48 h, SRB
# [25] = tested on: SNB-19; assay: NCI-60 five-dose assay (CNS cancer); conditions: 48 h, SRB
# [26] = tested on: U251; assay: NCI-60 five-dose assay (CNS cancer); conditions: SRB
# [27] = tested on: M14; assay: NCI-60 five-dose assay (melanoma); conditions: 48 h, SRB
# [28] = tested on: SK-MEL-2; assay: NCI-60 five-dose assay (melanoma); conditions: 48 h, SRB
# [29] = tested on: SK-MEL-28; assay: NCI-60 five-dose assay (melanoma); conditions: 48 h, SRB
# [30] = tested on: UACC-257; assay: NCI-60 five-dose assay (melanoma); conditions: 48 h, SRB
# [31] = tested on: 786-0; assay: NCI-60 five-dose assay (renal cancer); conditions: 48 h, SRB
# [32] = tested on: ACHN; assay: NCI-60 five-dose assay (renal cancer); conditions: 48 h, SRB
# [33] = tested on: CAKI-1; assay: NCI-60 five-dose assay (renal cancer); conditions: 48 h, SRB
# [34] = tested on: RXF 393; assay: NCI-60 five-dose assay (renal cancer); conditions: 48 h, SRB
# [35] = tested on: SN12C; assay: NCI-60 five-dose assay (renal cancer); conditions: 48 h, SRB
# [36] = tested on: MDA-MB-231/ATCC; assay: NCI-60 five-dose assay (breast cancer); conditions: 48 h, SRB
# [37] = Homo sapiens, read-out: LC50 (the source's name)
compound,measurement,setting,value
CCOc1ccccc1NC1=C(Cl)C(=O)c2nc(C)ccc2C1=O [AQQ2],GP (growth percentage),[1],59.11%
same,GP (growth percentage),[2],−2.24%
same,GP (growth percentage),[3],84.25%
same,GP (growth percentage),[4],−89.25%
same,GP (growth percentage),[5]; 48 h,17.62%
same,inhibition at 10 µM,[5]; Homo sapiens,82.4%
same,GP (growth percentage),[6]; 48 h,28.84%
same,inhibition at 10 µM,[6]; Homo sapiens,71.2%
same,GP (growth percentage),[7]; 48 h,12.07%
same,inhibition at 10 µM,[7]; Homo sapiens,87.9%
same,GP (growth percentage),[8],−43.48%
same,GP (growth percentage),[9],−57.52%
same,GP (growth percentage),[10],−9.58%
same,GP (growth percentage),[11],−91.97%
same,GP (growth percentage),[12],40.78%
same,GP (growth percentage),[13]; 48 h,0.93%
same,inhibition at 10 µM,[13]; Homo sapiens,99.1%
same,GP (growth percentage),[14],85.34%
same,TGI,[15],2920 nM
same,GI50,[15]; Homo sapiens,1030 nM
same,CC50,[15]; [37],8290 nM
same,TGI,[16],4710 nM
same,GI50,[16]; Homo sapiens,1200 nM
same,CC50,[16]; [37],> 100000 nM
same,TGI,[17],6740 nM
same,GI50,[17]; Homo sapiens,2270 nM
same,LC50 (concentration killing 50% of cells),[17]; Homo sapiens,28800 nM
same,TGI,[18],3330 nM
same,GI50,[18]; Homo sapiens,1800 nM
same,LC50 (50% lethal concentration),[18]; Homo sapiens,6130 nM
same,TGI,[19],4240 nM
same,GI50,[19]; Homo sapiens,1780 nM
same,LC50,[19]; Homo sapiens,16200 nM
same,TGI,[20],3660 nM
same,GI50,[20]; Homo sapiens,1730 nM
same,CC50,[20]; [37],7740 nM
same,TGI,[21],2310 nM
same,GI50,[21]; Homo sapiens,1050 nM
same,LC50,[21]; Homo sapiens,5050 nM
same,TGI,[22],2550 nM
same,GI50,[22]; Homo sapiens,1130 nM
same,CC50,[22]; [37],5760 nM
same,TGI,[23],2890 nM
same,GI50,[23]; Homo sapiens,1410 nM
same,CC50,[23]; [37],5920 nM
same,TGI,[24],3090 nM
same,GI50,[24]; Homo sapiens,1670 nM
same,LC50,[24]; Homo sapiens,5710 nM
same,TGI,[25],3970 nM
same,GI50,[25]; Homo sapiens,1800 nM
same,CC50,[25]; [37],8730 nM
same,TGI,[26]; 48 h,3270 nM
same,GI50,"[26]; Homo sapiens, U-251, 48 h",1700 nM
same,LC50 (concentration killing 50% of cells),"[26]; Homo sapiens, U-251, 48 h",6280 nM
same,TGI,[27],2830 nM
same,GI50,[27]; Homo sapiens,1460 nM
same,LC50,[27]; Homo sapiens,5500 nM
same,TGI,[28],2860 nM
same,GI50,[28]; Homo sapiens,1440 nM
same,CC50,[28]; [37],5690 nM
same,TGI,[29],3140 nM
same,GI50,[29]; Homo sapiens,1710 nM
same,LC50,[29]; Homo sapiens,5790 nM
same,TGI,[30],2610 nM
same,GI50,[30]; Homo sapiens,1280 nM
same,"LC50 (NCI-60 lethal concentration, 50% cell kill)",[30]; Homo sapiens,5340 nM
same,TGI,[31],3250 nM
same,GI50,[31]; Homo sapiens,1800 nM
same,LC50,[31]; Homo sapiens,5860 nM
same,TGI,[32],2690 nM
same,GI50,[32]; Homo sapiens,1350 nM
same,LC50,[32]; Homo sapiens,5350 nM
same,TGI,[33],2840 nM
same,GI50,[33]; Homo sapiens,1450 nM
same,"LC50 (lethal concentration, 50% net cell kill)",[33]; Homo sapiens,5570 nM
same,TGI,[34],2780 nM
same,GI50,[34]; Homo sapiens,1440 nM
same,LC50,[34]; Homo sapiens,5390 nM
same,TGI,[35],3040 nM
same,GI50,[35]; Homo sapiens,1590 nM
same,LC50 (concentration killing 50% of starting cells),[35]; Homo sapiens,5800 nM
same,TGI,[36],2380 nM
same,GI50,[36]; Homo sapiens,1070 nM
same,LC50 (concentration killing 50% of cells),[36]; Homo sapiens,5310 nM
